Data on 25 molecules can be found in ChEMBL document CHEMBL1158518, “Synthesis and evaluation of two series of 4'-aza-carbocyclic nucleosides as adenosine A2A receptor agonists” (Bioorg Med Chem Lett, 2010).

The target of experiment [1] is T1, Adenosine receptor A2a (Homo sapiens, UniProt P29274).
Description: Agonist activity at adenosine A2A receptor in human neutrophils assessed as inhibition of fMLP-induced reactive oxygen species release by chemiluminescence assay
Experiment [2] deals with T1, Adenosine receptor A2a. Description: biochemical.
In the next experiment the target is T2, Adenosine receptor A1 (Homo sapiens, UniProt P30542).
T2 sequence (P30542 whole entry): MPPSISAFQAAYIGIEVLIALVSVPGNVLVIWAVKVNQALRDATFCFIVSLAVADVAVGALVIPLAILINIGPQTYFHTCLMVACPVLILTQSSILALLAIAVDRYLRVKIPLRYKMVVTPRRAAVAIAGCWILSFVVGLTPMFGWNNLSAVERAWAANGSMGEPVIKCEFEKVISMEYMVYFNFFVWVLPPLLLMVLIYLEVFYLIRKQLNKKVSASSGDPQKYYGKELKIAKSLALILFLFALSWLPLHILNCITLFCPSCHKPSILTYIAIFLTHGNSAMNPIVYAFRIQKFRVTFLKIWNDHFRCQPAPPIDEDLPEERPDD
The experiment is described as follows: Agonist activity at human adenosine A1 receptor expressed in CHO cells by GTPPgammaS binding assay. In kind it is cell-based.

Another experiment concerns the target T3, Adenosine receptor A3 (Homo sapiens, UniProt P0DMS8).
T3 sequence (P0DMS8 whole entry): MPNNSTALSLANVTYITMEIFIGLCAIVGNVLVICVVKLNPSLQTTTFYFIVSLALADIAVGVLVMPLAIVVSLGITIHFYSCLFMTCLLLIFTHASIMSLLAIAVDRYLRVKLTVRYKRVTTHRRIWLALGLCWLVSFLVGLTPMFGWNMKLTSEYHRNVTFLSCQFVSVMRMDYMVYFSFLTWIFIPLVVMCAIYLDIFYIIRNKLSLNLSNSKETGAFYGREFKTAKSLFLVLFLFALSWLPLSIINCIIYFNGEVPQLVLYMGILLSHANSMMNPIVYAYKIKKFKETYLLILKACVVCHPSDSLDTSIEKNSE
The experiment is described as follows: Agonist activity at human adenosine A3 receptor expressed in CHO cells by GTPPgammaS binding assay. It is filed as cell-based. (In general: GTPγS resists hydrolysis and so accumulates on activated G proteins.)

For experiment [3], the system named is PBMC. Description: Antiinflammatory activity in human PBMC assessed as inhibition of LPS-induced TNFalpha production after 20 hrs by ELISA. It is filed as functional, cell-based. On the technique in general: An ELISA detects its analyte on a solid surface through an enzyme-linked reagent.
A further experiment has as its target T4, Adenosine receptor A2b (Homo sapiens, UniProt P29275).
T4 sequence (P29275 whole entry): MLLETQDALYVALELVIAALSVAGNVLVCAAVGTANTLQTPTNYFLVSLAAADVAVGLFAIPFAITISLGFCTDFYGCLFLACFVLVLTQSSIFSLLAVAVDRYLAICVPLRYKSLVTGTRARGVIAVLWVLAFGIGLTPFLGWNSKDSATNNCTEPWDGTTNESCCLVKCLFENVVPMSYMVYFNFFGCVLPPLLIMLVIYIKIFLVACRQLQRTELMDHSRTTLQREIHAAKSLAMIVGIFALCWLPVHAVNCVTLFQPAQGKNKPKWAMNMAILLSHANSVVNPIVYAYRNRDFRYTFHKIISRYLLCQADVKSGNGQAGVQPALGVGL

The subject of experiment [4] is PBMC. The experiment is described as follows: Antiinflammatory activity in rat PBMC assessed as inhibition of LPS-induced TNFalpha production after 20 hrs by ELISA.
The target of experiment [5] is T5, Adenosine receptor A3 (Homo sapiens) (UniProt P0DMS8).
T5 sequence (whole entry): T3 sequence (P0DMS8 whole entry)
The experiment is described as follows: Antagonist activity at human adenosine A3 receptor expressed in CHO cells assessed as I-AB-MECA-induced GTPPgammaS binding response. The arrangement: concentration or dose not given beside the values. In kind it is functional, cell-based.

Experiment [6] has as its target T5, Adenosine receptor A3 (Homo sapiens). The experiment is described as follows: Partial agonist activity at human adenosine A3 receptor expressed in CHO cells assessed as I-AB-MECA-induced GTPPgammaS binding response. It is filed as cell-based.

T1 sequence (P29274 whole entry): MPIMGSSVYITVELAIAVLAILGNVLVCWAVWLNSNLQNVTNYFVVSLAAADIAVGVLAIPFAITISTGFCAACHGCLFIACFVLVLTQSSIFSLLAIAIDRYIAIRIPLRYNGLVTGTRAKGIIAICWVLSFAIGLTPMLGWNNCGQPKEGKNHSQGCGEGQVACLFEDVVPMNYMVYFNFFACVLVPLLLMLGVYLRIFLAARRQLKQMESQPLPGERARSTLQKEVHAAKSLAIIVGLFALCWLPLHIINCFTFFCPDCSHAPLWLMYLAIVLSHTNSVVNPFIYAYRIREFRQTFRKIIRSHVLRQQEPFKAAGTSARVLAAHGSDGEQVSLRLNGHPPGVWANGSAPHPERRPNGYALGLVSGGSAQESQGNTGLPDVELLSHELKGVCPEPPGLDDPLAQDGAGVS
Description for Adenosine receptor A2b: Agonist activity at human adenosine A2B receptor expressed in CHO cells assessed as effect on cAMP production by luciferase reporter gene assay

As a reminder, the IC50 is the concentration that gives 50% inhibition. In general, Ki refers to the dissociation constant of the complex between target and ligand, obtained from inhibition or displacement. `CCCC(=O)N[C@H]1C[C@@H](n2cnc3c(NCC(c4ccccc4)c4ccccc4)nc(NCCc4cn(C(C)C)cn4)nc32)[C@H](O)[C@@H]1O`: the IC50 against Adenosine receptor A2a [1] worked out at 160 nM. Moreover, the affinity at Adenosine receptor A2a [2], expressed as Ki, was 39 nM.
On Adenosine receptor A2a [1], `CC(C)n1cnc(CCNc2nc(NCC(c3ccccc3)c3ccccc3)c3ncn([C@@H]4C[C@H](NC(=O)C(C)(C)C)[C@@H](O)[C@H]4O)c3n2)c1` had an IC50 of 542 nM. In addition, the affinity on Adenosine receptor A2a [2], expressed as Ki, was 382 nM.
As to `CCc1cnn([C@H]2C[C@@H](n3cnc4c(NCC(c5ccccc5)c5ccccc5)nc(NCCc5cn(CC)cn5)nc43)[C@H](O)[C@@H]2O)c1`, the Ki at Adenosine receptor A2a [2] came out at 146 nM.
The molecule `Nc1nc(N[C@H](CO)Cc2ccccc2)nc2c1ncn2[C@@H]1C[C@H](n2cccn2)[C@@H](O)[C@H]1O` yielded a Ki on Adenosine receptor A2a [2] of 702 nM.
A word on the EC50: it is the concentration giving half of the maximal effect. As to `CCC(=O)N[C@H]1C[C@@H](n2cnc3c(NCC(c4ccccc4)c4ccccc4)nc(NCCc4cn(C)cn4)nc32)[C@H](O)[C@@H]1O`, the EC50 is greater than 10000 nM on Adenosine receptor A1 and 42 nM on Adenosine receptor A3. In addition, on Adenosine receptor A2a [1], the IC50 came to 4.7 nM. The same molecule had a Ki at Adenosine receptor A2a [2] of 4.6 nM.
Molecule `Nc1nc(N[C@H](CO)Cc2ccccc2)nc2c1ncn2[C@@H]1C[C@H](n2ccccc2=O)[C@@H](O)[C@H]1O` registered a Ki on Adenosine receptor A2a [2] of 5490 nM.
Consider `CCC(=O)N[C@H]1C[C@@H](n2cnc3c(NCC(c4ccccc4)c4ccccc4)nc(NCCc4cn(CC)cn4)nc32)[C@H](O)[C@@H]1O`, for which the EC50 on Adenosine receptor A3 came out at 44 nM. In addition, inhibition against Adenosine receptor A2a [1] was half-maximal at 5 nM (IC50). Also, the Ki at Adenosine receptor A2a [2] was found to be 5.2 nM.
`CCC(=O)N[C@H]1C[C@@H](n2cnc3c(NC(CC)CC)nc(NCCc4cn(CC)cn4)nc32)[C@H](O)[C@@H]1O`: the figures for the EC50 on Adenosine receptor A1, at Adenosine receptor A3 and on Adenosine receptor A2b were greater than 10000 nM, 1640 nM and greater than 10000 nM, respectively. Also, the IC50 in the experiment with PBMC [3] came to 4.7 nM; against Adenosine receptor A2a [1] it was 2.7 nM; with PBMC [4] it was 255 nM. Also, the Ki on Adenosine receptor A2a [2] was 5.4 nM.
Turning to `CCC(CC)CNc1nc(NCCc2cn(CC)cn2)nc2c1ncn2[C@@H]1C[C@H](n2cc(CO)cn2)[C@@H](O)[C@H]1O`, the figures for the EC50 at Adenosine receptor A1, on Adenosine receptor A3 and at Adenosine receptor A2b were 4100 nM, 789 nM and greater than 10000 nM, respectively. In [5], the Activity is greater than 50%. In addition, the IC50 with PBMC [3] is 21 nM; at Adenosine receptor A2a [1], 5.3 nM; in the experiment with PBMC [4] it was 3590 nM. In addition, the Ki at Adenosine receptor A2a [2] worked out at 5.4 nM.
At Adenosine receptor A2a [1], `CC(C)C(=O)N[C@H]1C[C@@H](n2cnc3c(NCC(c4ccccc4)c4ccccc4)nc(NCCc4cn(C(C)C)cn4)nc32)[C@H](O)[C@@H]1O` yielded an IC50 of 67 nM. For the same molecule, on Adenosine receptor A2a [2], the Ki came to 27 nM.
Take `CC(C)n1cnc(CCNc2nc(NCC(c3ccccc3)c3ccccc3)c3ncn([C@@H]4C[C@H](NC(=O)CCc5ccccc5)[C@@H](O)[C@H]4O)c3n2)c1`: the Ki at Adenosine receptor A2a [2] came to 5470 nM.
For the molecule `CCC(=O)N[C@H]1C[C@@H](n2cnc3c(NCC(c4ccccc4)c4ccccc4)nc(NCCc4c[nH]cn4)nc32)[C@H](O)[C@@H]1O`, the EC50 is greater than 10000 nM on Adenosine receptor A1, 139 nM at Adenosine receptor A3 and greater than 10000 nM at Adenosine receptor A2b. For the same molecule, on Adenosine receptor A2a [1], inhibition was half-maximal at 5.9 nM (IC50). In addition, on Adenosine receptor A2a [2], the Ki stood at 5.2 nM.
For `CCc1cnn([C@H]2C[C@@H](n3cnc4c(N)nc(N[C@H](CO)Cc5ccccc5)nc43)[C@H](O)[C@@H]2O)c1`, the values for the EC50 at Adenosine receptor A1, on Adenosine receptor A3 and on Adenosine receptor A2b were greater than 10000 nM, 776 nM and greater than 10000 nM, respectively. For the same molecule, the Activity in experiment [5] was greater than 50%. On Adenosine receptor A2a [1], this molecule had an IC50 of 62 nM. Besides, at Adenosine receptor A2a [2], the Ki worked out at 182 nM.
As for `CC(C)n1cnc(CCNc2nc(NCC(c3ccccc3)c3ccccc3)c3ncn([C@@H]4C[C@H](NC(=O)C5CC5)[C@@H](O)[C@H]4O)c3n2)c1`, the results for the half-maximal effective concentration (EC50) at Adenosine receptor A1 and at Adenosine receptor A3 were greater than 10000 nM and 357 nM, respectively. For the same molecule, the Activity in experiment [5] was greater than 50%. The molecule also showed an IC50 on Adenosine receptor A2a [1] of 60 nM. On Adenosine receptor A2a [2], the affinity, expressed as Ki, was 16 nM.
`Nc1nc(N[C@H](CO)Cc2ccccc2)nc2c1ncn2[C@@H]1C[C@H](n2ncc3ccccc32)[C@@H](O)[C@H]1O`: on Adenosine receptor A2a [2], the Ki was 5410 nM.
`CCNC(=O)[C@H]1O[C@@H](n2cnc3c(N)ncnc32)[C@H](O)[C@@H]1O` [NECA]: the IC50 amounted to 40 nM in the experiment on PBMC [3] and 187 nM in the experiment on PBMC [4].
The molecule `CCn1nnc([C@H]2O[C@@H](n3cnc4c(N)nc(N[C@H](CO)Cc5ccccc5)nc43)[C@H](O)[C@@H]2O)n1` [GW-328267] displayed an EC50 on Adenosine receptor A1 of 882 nM. Also, the Activity in experiment [5] was greater than 50%. Besides, the IC50 is 1.3 nM in the experiment with PBMC [3], 0.4 nM on Adenosine receptor A2a [1] and 2.9 nM in the experiment on PBMC [4].
`Nc1nc(N[C@H](CO)Cc2ccccc2)nc2c1ncn2[C@@H]1C[C@H](n2cc(-c3ccccc3)cn2)[C@@H](O)[C@H]1O`: the Ki on Adenosine receptor A2a [2] is greater than 10000 nM.
Same read-out and setting: under `CC(C)n1cnc(CCNc2nc(NCC(c3ccccc3)c3ccccc3)c3ncn([C@@H]4C[C@H](NC(=O)Cc5ccccc5)[C@@H](O)[C@H]4O)c3n2)c1` stands 1670 nM; under `CCC(=O)N[C@H]1C[C@@H](n2cnc3c(NCC(c4ccccc4)c4ccccc4)nc(NCCc4cn(CC(=O)O)cn4)nc32)[C@H](O)[C@@H]1O`, 97 nM.
Consider `CCC(=O)N[C@H]1C[C@@H](n2cnc3c(NC(CC)CC)nc(NCCc4cn(C(C)C)cn4)nc32)[C@H](O)[C@@H]1O`, for which the EC50 was greater than 10000 nM on Adenosine receptor A1 and 2520 nM on Adenosine receptor A3. Besides, the figures for the IC50 with PBMC [3], on Adenosine receptor A2a [1] and in the experiment with PBMC [4] were 5.9 nM, 8.3 nM and 458 nM, respectively. This molecule returned a Ki at Adenosine receptor A2a [2] of 8 nM.
`Cc1cnn([C@H]2C[C@@H](n3cnc4c(N)nc(N[C@H](CO)Cc5ccccc5)nc43)[C@H](O)[C@@H]2O)c1`: the EC50 at Adenosine receptor A1 is greater than 10000 nM; at Adenosine receptor A3, 449 nM; at Adenosine receptor A2b, greater than 10000 nM. The Activity in experiment [5] was greater than 50%. This molecule also registered an IC50 at Adenosine receptor A2a [1] of 56 nM. For the same molecule, at Adenosine receptor A2a [2], the Ki came to 229 nM.
For the molecule `CCNC(=O)[C@H]1O[C@@H](n2cnc3c(N)nc(NCCc4ccc(CCC(=O)O)cc4)nc32)[C@H](O)[C@@H]1O` [CGS-21680], the values for the IC50 in the experiment with PBMC [3] and with PBMC [4] were 58 nM and 83 nM, respectively.
Take `CC(C)n1cnc(CCNc2nc(NCC(c3ccccc3)c3ccccc3)c3ncn([C@@H]4C[C@H](NC(=O)C5CCC5)[C@@H](O)[C@H]4O)c3n2)c1`: the EC50 at Adenosine receptor A1 was greater than 10000 nM; on Adenosine receptor A3 it was 480 nM. For the same molecule, the Activity in [6] was found to be 48%. On Adenosine receptor A2a [1], this molecule displayed an IC50 of 40 nM. The Ki at Adenosine receptor A2a [2] came out at 7.9 nM.
On to `CCCCC#Cc1nc(N)c2ncn([C@@H]3C[C@H](NC(=O)CC)[C@@H](O)[C@H]3O)c2n1`, for which the EC50 at Adenosine receptor A1 was greater than 10000 nM; on Adenosine receptor A3, 105 nM; at Adenosine receptor A2b, greater than 10000 nM. At Adenosine receptor A2a [1], this molecule showed an IC50 of 12 nM. This molecule also showed an inhibition constant Ki at Adenosine receptor A2a [2] of 18 nM.
